Experimental data from ChEMBL document CHEMBL1201862, “PubChem BioAssay data set” (2004).
The source made the active and inactive calls.

Tests used:
[1] = biological target: T1, Mannose-6-phosphate isomerase (Homo sapiens, UniProt P34949); test: inhibitors of human PMI, primary screen, biochemical, fluorescence intensity, coupled assay (AID 1209)
T1 sequence (P34949 whole entry): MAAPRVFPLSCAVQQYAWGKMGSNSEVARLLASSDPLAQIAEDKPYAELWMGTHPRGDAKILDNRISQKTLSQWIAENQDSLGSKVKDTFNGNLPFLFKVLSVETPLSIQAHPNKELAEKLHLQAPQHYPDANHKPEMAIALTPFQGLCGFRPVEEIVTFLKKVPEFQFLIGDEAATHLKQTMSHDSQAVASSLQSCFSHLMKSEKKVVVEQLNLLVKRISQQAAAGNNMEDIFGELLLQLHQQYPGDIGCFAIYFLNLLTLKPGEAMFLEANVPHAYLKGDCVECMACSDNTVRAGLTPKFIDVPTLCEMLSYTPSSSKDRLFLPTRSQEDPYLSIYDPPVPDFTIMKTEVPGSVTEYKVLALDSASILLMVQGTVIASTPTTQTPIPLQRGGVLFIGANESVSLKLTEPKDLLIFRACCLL

BJ [2] = test: cytotoxicity toward BJ-TERT fibroblasts, dose response, cell-based, RAS-independent, luminescence (AID 1933); assay type: functional; conditions: Homo sapiens
[3] = inhibitors of SNCA 5'UTR-driven reporter translation, confirmation, H4 neuroglioma cells, luminescence (AID 1988); assay type: functional, cell-based
BJ [4] = test: cells; assay type: functional, cell-based; conditions: Homo sapiens
[5] = biological target: T2, Replicative DNA helicase DnaB (Mycobacterium tuberculosis, UniProt P9WMR3); test: DnaB intein splicing inhibitors, dose response, biochemical, cell-free fluorescence (AID 449749); assay type: functional
T2 sequence (P9WMR3 whole entry): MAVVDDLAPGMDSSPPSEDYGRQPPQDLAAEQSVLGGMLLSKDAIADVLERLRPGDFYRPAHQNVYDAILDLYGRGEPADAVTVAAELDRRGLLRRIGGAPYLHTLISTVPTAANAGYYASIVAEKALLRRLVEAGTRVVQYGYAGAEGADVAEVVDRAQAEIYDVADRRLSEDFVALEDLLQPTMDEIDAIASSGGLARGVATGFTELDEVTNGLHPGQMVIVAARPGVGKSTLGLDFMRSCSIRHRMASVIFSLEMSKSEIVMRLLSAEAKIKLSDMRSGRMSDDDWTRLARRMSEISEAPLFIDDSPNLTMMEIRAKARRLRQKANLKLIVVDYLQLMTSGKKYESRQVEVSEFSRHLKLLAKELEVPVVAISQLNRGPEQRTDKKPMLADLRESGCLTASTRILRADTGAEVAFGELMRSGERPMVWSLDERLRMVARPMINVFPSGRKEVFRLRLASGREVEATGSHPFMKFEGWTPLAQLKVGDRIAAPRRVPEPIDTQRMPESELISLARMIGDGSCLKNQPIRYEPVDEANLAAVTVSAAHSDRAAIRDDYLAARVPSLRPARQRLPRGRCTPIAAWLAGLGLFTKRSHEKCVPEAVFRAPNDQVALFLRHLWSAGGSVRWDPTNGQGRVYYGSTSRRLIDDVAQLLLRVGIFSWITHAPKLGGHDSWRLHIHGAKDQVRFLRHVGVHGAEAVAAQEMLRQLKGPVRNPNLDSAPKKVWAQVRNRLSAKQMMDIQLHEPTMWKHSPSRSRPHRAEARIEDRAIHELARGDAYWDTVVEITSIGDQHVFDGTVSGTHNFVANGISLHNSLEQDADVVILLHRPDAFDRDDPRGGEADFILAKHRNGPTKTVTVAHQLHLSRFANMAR

[6] = RKO cell viability reduction, dose response, CellTiter-Glo luminescence (AID 1117322); assay type: functional
[7] = biological target: Serine/threonine-protein phosphatase PP1-alpha catalytic subunit (Homo sapiens, UniProt P62136); test: PP1 phosphatase inhibitors, dose response, biochemical, fluorescence (AID 2394)
[8] = biological target: T3, Sentrin-specific protease 8 (Homo sapiens, UniProt Q96LD8); assay type: functional;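 note: luminescence read-out of SENP8 inhibition, dose-response confirmation following an ultra-high-throughput screen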
T3 sequence (Q96LD8 whole entry): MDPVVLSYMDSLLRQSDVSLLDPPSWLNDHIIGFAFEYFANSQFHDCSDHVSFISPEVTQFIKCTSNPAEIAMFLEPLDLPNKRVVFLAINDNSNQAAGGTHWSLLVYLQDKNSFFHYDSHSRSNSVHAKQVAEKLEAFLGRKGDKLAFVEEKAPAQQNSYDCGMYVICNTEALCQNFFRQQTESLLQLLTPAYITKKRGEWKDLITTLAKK

Caspase-6 = biological target: T4, Caspase-6 (Homo sapiens, UniProt P55212); test: human caspase-6 inhibitors, dose response, biochemical, VEID-R110 fluorescence, cherry-pick (AID 720632)
T4 sequence (P55212 whole entry): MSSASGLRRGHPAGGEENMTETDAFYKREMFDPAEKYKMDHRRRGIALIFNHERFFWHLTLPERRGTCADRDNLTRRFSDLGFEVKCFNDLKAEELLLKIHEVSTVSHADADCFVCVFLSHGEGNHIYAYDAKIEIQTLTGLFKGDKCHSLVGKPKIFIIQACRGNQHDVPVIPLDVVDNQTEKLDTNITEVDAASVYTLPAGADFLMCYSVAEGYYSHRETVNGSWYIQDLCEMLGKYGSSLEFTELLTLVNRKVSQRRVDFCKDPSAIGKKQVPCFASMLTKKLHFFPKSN

Sequence of Serine/threonine-protein phosphatase PP1-alpha catalytic subunit (P62136 whole entry): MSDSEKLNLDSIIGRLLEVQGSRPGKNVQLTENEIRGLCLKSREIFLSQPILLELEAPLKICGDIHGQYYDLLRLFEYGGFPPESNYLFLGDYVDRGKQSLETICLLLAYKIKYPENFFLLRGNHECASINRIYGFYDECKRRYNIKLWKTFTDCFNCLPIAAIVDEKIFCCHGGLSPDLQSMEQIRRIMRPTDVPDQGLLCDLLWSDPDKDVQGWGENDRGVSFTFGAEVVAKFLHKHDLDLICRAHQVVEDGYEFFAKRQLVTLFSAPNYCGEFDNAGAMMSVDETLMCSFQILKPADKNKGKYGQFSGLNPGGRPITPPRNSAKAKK

Structure (SMILES): Oc1ccc(/C=N/Nc2cc(N3CCCC3)nc(N3CCCC3)n2)cc1O
- IC50 [1]: > 50 µM (not active)

Structure (SMILES): Cc1cc2nc3ccc(N(C)C)cc3[s+]c2cc1N [TOLONIUM CHLORIDE]
- EC50 (BJ [2]): 5.74 µM (active)
- EC50 [3]: 7.13 µM (active)
- EC50 (BJ [4]): 7.39 µM (active)
- AC50 [5]: 77.1 µM (active)
- IC50 [6]: 996 nM (active)

Structure (SMILES): CCCOc1cc2c(C#N)c(N3CCCC3)nc(N)c2c(N)n1
- IC50 [7]: > 67 µM (not active)
- IC50 [8]: 4.32 µM (active)
- AC50 (Caspase-6): 16.9 µM (active)
